Experimental data from ChEMBL document CHEMBL3046614, “Overexpression of the sterol 14α-demethylase gene (MgCYP51) in Mycosphaerella graminicola isolates confers a novel azole fungicide sensitivity phenotype” (Pest Manag Sci, 2012).
≈ marks a conversion by molar mass, not a printed value. Calls of active or inactive are those of the source. The calls are words filed in the database; no cut-off is given here.

Experiments:
Zymoseptoria tritici [1] = assay: Fungicidal activity against Zymoseptoria tritici isolate TAG1-18 with 120 bp insertion expressing CYP51 variant with combination of L50S, S188N, I381V, deltaY459/G460 and N513K mutations assessed as fungal growth inhibition; assay type: functional, organism-based
Zymoseptoria tritici [2] = assay: Fungicidal activity against Zymoseptoria tritici isolate OP6 without 120 bp insertion expressing CYP51 variant with combination of L50S, S188N, I381V, deltaY459/G460 and N513K mutations assessed as fungal growth inhibition; assay type: functional, organism-based
Zymoseptoria tritici [3] = assay: Fungicidal activity against Zymoseptoria tritici isolate R03-29 without 120 bp insertion expressing CYP51 variant with combination of L50S, S188N, I381V, deltaY459/G460 and N513K mutations assessed as fungal growth inhibition; assay type: functional, organism-based
Zymoseptoria tritici [4] = assay: Fungicidal activity against Zymoseptoria tritici isolate TAG74-3 with 120 bp insertion expressing CYP51 variant with combination of L50S, S188N, I381V, deltaY459/G460 and N513K mutations assessed as fungal growth inhibition; assay type: functional, organism-based
Zymoseptoria tritici [5] = assay: Fungicidal activity against Zymoseptoria tritici isolate R03-54 without 120 bp insertion expressing CYP51 variant with combination of L50S, S188N, I381V, deltaY459/G460 and N513K mutations assessed as fungal growth inhibition; assay type: functional, organism-based
Zymoseptoria tritici [6] = assay: Fungicidal activity against Zymoseptoria tritici isolate IPO323 without 120 bp insertion expressing wild type CYP51 assessed as fungal growth inhibition; assay type: functional, organism-based
Zymoseptoria tritici [7] = assay: Fungicidal activity against Zymoseptoria tritici isolate OP7 with 120 bp insertion expressing CYP51 variant with combination of L50S, S188N, I381V, deltaY459/G460 and N513K mutations assessed as fungal growth inhibition; assay type: functional, organism-based
Zymoseptoria tritici [8] = assay: (§1) Fungicidal activity against Zymoseptoria tritici isolate OP7 with 120 bp insertion expressing CYP51 variant with combination of L50S, S188N, I381V, deltaY459/G460 and N513K mutations inoculated on compound pre-treated wheat cultivar Riband seedlings assessed as fungal DNA level at doses > 1/16 recommended field rate measured 21 days post fungal inoculation; assay type: functional, organism-based
Zymoseptoria tritici [9] = assay: as §1, with “39.06 ppm” for “doses > 1/16 recommended field rate”; assay type: functional
Zymoseptoria tritici [10] = assay: as §1, with “pycnidia formation” for “fungal DNA level”, “39.06 ppm” for “doses > 1/16 recommended field rate”; assay type: functional, organism-based
Zymoseptoria tritici [11] = assay: as §1, with “pycnidia formation” for “fungal DNA level”; assay type: functional, organism-based
Zymoseptoria tritici [12] = assay: as §1, with “TAG74-3” for “OP7”, “pycnidia formation” for “fungal DNA level”, “39.06 ppm” for “doses > 1/16 recommended field rate”; assay type: functional, organism-based
Zymoseptoria tritici [13] = assay: Fungicidal activity against Zymoseptoria tritici isolate R10-13 without 120 bp insertion expressing CYP51 variant with combination of L50S, S188N, I381V, deltaY459/G460 and N513K mutations assessed as fungal growth inhibition; assay type: functional, organism-based
Zymoseptoria tritici [14] = assay: as §1, with “TAG74-3” for “OP7”, “pycnidia formation” for “fungal DNA level”; assay type: functional, organism-based
Zymoseptoria tritici [15] = assay: as §1, with “R10-13 without” for “OP7 with”, “39.06 ppm” for “doses > 1/16 recommended field rate”; assay type: functional
Zymoseptoria tritici [16] = assay: as §1, with “TAG74-3” for “OP7”; assay type: functional, organism-based
Zymoseptoria tritici [17] = assay: Fungicidal activity against Zymoseptoria tritici isolate V18 with 120 bp insertion expressing CYP51 variant with combination of L50S, S188N, I381V, deltaY459/G460 and N513K mutations assessed as fungal growth inhibition; assay type: functional, organism-based
Zymoseptoria tritici [18] = assay: as §1, with “OP6 without” for “OP7 with”, “39.06 ppm” for “doses > 1/16 recommended field rate”; assay type: functional
Zymoseptoria tritici [19] = assay: as §1, with “TAG74-3” for “OP7”, “39.06 ppm” for “doses > 1/16 recommended field rate”; assay type: functional
Zymoseptoria tritici [20] = assay: as §1, with “TAG74-3” for “OP7”, “pycnidia formation” for “fungal DNA level”, “28.13 ppm” for “doses > 1/16 recommended field rate”; assay type: functional, organism-based
Zymoseptoria tritici [21] = assay: as §1, with “TAG74-3” for “OP7”, “28.13 ppm” for “doses > 1/16 recommended field rate”; assay type: functional
Zymoseptoria tritici [22] = assay: as §1, with “pycnidia formation” for “fungal DNA level”, “28.13 ppm” for “doses > 1/16 recommended field rate”; assay type: functional, organism-based
Zymoseptoria tritici [23] = assay: as §1, with “OP6 without” for “OP7 with”, “28.13 ppm” for “doses > 1/16 recommended field rate”; assay type: functional
Zymoseptoria tritici [24] = assay: as §1, with “R10-13 without” for “OP7 with”, “28.13 ppm” for “doses > 1/16 recommended field rate”; assay type: functional
Zymoseptoria tritici [25] = assay: as §1, with “28.13 ppm” for “doses > 1/16 recommended field rate”; assay type: functional

Structure (SMILES): O=C(Nc1ccccc1-c1ccc(Cl)cc1)c1cccnc1Cl [BOSCALID]
- EC50 (Zymoseptoria tritici [1]): 0.976 µg/mL
- EC50 (Zymoseptoria tritici [2]): 0.841 µg/mL
- EC50 (Zymoseptoria tritici [3]): 0.21 µg/mL
- EC50 (Zymoseptoria tritici [4]): 0.719 µg/mL
- EC50 (Zymoseptoria tritici [5]): 0.766 µg/mL
- EC50 (Zymoseptoria tritici [6]): 0.554 µg/mL (≈ 1.61 µM)
- EC50 (Zymoseptoria tritici [7]): 0.808 µg/mL

Structure (SMILES): Fc1ccc([C@]2(Cn3cncn3)O[C@H]2c2ccccc2Cl)cc1 [EPOXICONAZOLE]
- Activity (Zymoseptoria tritici [8]): Active
- Activity (Zymoseptoria tritici [9]): 1600 pg
- EC50 (Zymoseptoria tritici [1]): 0.911 µg/mL
- Activity (Zymoseptoria tritici [10]): inactive
- Activity (Zymoseptoria tritici [11]): Active
- EC50 (Zymoseptoria tritici [2]): 0.085 µg/mL
- EC50 (Zymoseptoria tritici [3]): 0.067 µg/mL
- Activity (Zymoseptoria tritici [12]): inactive
- EC50 (Zymoseptoria tritici [4]): 1.41 µg/mL
- EC50 (Zymoseptoria tritici [13]): 0.091 µg/mL
- Activity (Zymoseptoria tritici [14]): Active
- Activity (Zymoseptoria tritici [15]): 400 pg
- Activity (Zymoseptoria tritici [16]): Active
- EC50 (Zymoseptoria tritici [5]): 0.092 µg/mL
- EC50 (Zymoseptoria tritici [17]): 0.759 µg/mL
- EC50 (Zymoseptoria tritici [6]): 0.0015 µg/mL (≈ 0.00455 µM)
- EC50 (Zymoseptoria tritici [7]): 0.819 µg/mL
- Activity (Zymoseptoria tritici [18]): 14 pg
- Activity (Zymoseptoria tritici [19]): 9284 pg

Structure (SMILES): CC1(C)CCC(Cc2ccc(Cl)cc2)C1(O)Cn1cncn1 (stereo not drawn) [METCONAZOLE]
- Activity (Zymoseptoria tritici [8]): Active
- Activity (Zymoseptoria tritici [20]): inactive
- Activity (Zymoseptoria tritici [21]): 1600 pg
- EC50 (Zymoseptoria tritici [1]): 0.602 µg/mL
- Activity (Zymoseptoria tritici [22]): inactive
- Activity (Zymoseptoria tritici [11]): Active
- EC50 (Zymoseptoria tritici [2]): 0.051 µg/mL
- EC50 (Zymoseptoria tritici [3]): 0.032 µg/mL
- EC50 (Zymoseptoria tritici [4]): 1.39 µg/mL
- EC50 (Zymoseptoria tritici [13]): 0.097 µg/mL
- Activity (Zymoseptoria tritici [14]): Active
- Activity (Zymoseptoria tritici [16]): Active
- Activity (Zymoseptoria tritici [23]): 65 pg
- EC50 (Zymoseptoria tritici [6]): < 0.0002 µg/mL
- EC50 (Zymoseptoria tritici [7]): 0.821 µg/mL
- Activity (Zymoseptoria tritici [24]): 106 pg
- Activity (Zymoseptoria tritici [25]): 5674 pg

Structure (SMILES): CCCN(CCOc1c(Cl)cc(Cl)cc1Cl)C(=O)n1ccnc1 [PROCHLORAZ]
- EC50 (Zymoseptoria tritici [1]): 0.294 µg/mL
- EC50 (Zymoseptoria tritici [2]): 0.019 µg/mL
- EC50 (Zymoseptoria tritici [3]): 0.077 µg/mL
- EC50 (Zymoseptoria tritici [4]): 0.624 µg/mL
- EC50 (Zymoseptoria tritici [13]): 0.049 µg/mL
- EC50 (Zymoseptoria tritici [5]): 0.025 µg/mL
- EC50 (Zymoseptoria tritici [17]): 0.239 µg/mL
- EC50 (Zymoseptoria tritici [6]): 0.015 µg/mL (≈ 0.0398 µM)
- EC50 (Zymoseptoria tritici [7]): 0.229 µg/mL

Structure (SMILES): OC(Cc1ccccc1Cl)(Cn1cncn1)C1(Cl)CC1 (stereo not drawn) [PROTHIOCONAZOLE-DESTHIO]
- EC50 (Zymoseptoria tritici [1]): 0.12 µg/mL
- EC50 (Zymoseptoria tritici [2]): 0.0126 µg/mL
- EC50 (Zymoseptoria tritici [3]): 0.0091 µg/mL
- EC50 (Zymoseptoria tritici [4]): 0.221 µg/mL
- EC50 (Zymoseptoria tritici [13]): 0.0111 µg/mL
- EC50 (Zymoseptoria tritici [5]): 0.0055 µg/mL
- EC50 (Zymoseptoria tritici [17]): 0.126 µg/mL
- EC50 (Zymoseptoria tritici [6]): 0.00187 µg/mL (≈ 0.00599 µM)
- EC50 (Zymoseptoria tritici [7]): 0.135 µg/mL

Structure (SMILES): CC(C)(C)C(O)(CCc1ccc(Cl)cc1)Cn1cncn1 (stereo not drawn) [TEBUCONAZOLE]
- EC50 (Zymoseptoria tritici [1]): 7.81 µg/mL
- EC50 (Zymoseptoria tritici [2]): 1.24 µg/mL
- EC50 (Zymoseptoria tritici [3]): 2.7 µg/mL
- EC50 (Zymoseptoria tritici [4]): 20.7 µg/mL
- EC50 (Zymoseptoria tritici [13]): 2.34 µg/mL
- EC50 (Zymoseptoria tritici [5]): 1.5 µg/mL
- EC50 (Zymoseptoria tritici [17]): 15.4 µg/mL
- EC50 (Zymoseptoria tritici [6]): 0.041 µg/mL (≈ 0.133 µM)
- EC50 (Zymoseptoria tritici [7]): 8.22 µg/mL

Structure (SMILES): CN(C/C=C/C#CC(C)(C)C)Cc1cccc2ccccc12 [TERBINAFINE]
- EC50 (Zymoseptoria tritici [1]): 0.053 µg/mL
- EC50 (Zymoseptoria tritici [2]): 0.048 µg/mL
- EC50 (Zymoseptoria tritici [3]): 0.063 µg/mL
- EC50 (Zymoseptoria tritici [4]): 0.061 µg/mL
- EC50 (Zymoseptoria tritici [13]): 0.082 µg/mL
- EC50 (Zymoseptoria tritici [17]): 0.053 µg/mL
- EC50 (Zymoseptoria tritici [6]): 0.047 µg/mL (≈ 0.161 µM)
- EC50 (Zymoseptoria tritici [7]): 0.045 µg/mL
